In patent publication US4716172A, “4-substituted octahydroquinolizine analgesic compounds and octahydroquinolizinium intermediates” (McNeilab, Inc., priority 1986, dated 1987):
Where two headings read alike, the source gives them in different places.

Test system: acetylcholine-bromide-induced abdominal constriction (writhing)
Test: Mouse Acetylcholine-Bromide-Induced Abdominal Constriction Assay
Type: in vivo
Conditions: for ED50: po, read-out: ED50 (dose which inhibits writhing by 50%)
Description: Mouse Acetylcholine-Bromide-Induced Abdominal Constriction Assay:
The mouse acetylcholine-induced abdominal constriction assay, as described by Collier et al. in Brit. J. Pharmacol. Chem. Ther., 32:295-310, 1968, with minor modifications was the test used to assess analgesic potency. The test drugs or appropriate vehicle were administered orally (p.o.) and 30 minutes later the animals received an intraperitoneal (i.p.) injection of 5.5 mg/kg acetylcholine bromide (Matheson, Coleman and Bell, East Rutherford, NJ). The mice were then placed in groups of four into glass bell jars and observed for a ten minute observation period for the occurrence of a writhe (defined as a wave of constriction and elongation passing caudally along the abdominal wall, accompanied by a twisting of the trunk and followed by extension of the hind limbs). The percent inhibition of writhing (equated to % analgesia) was calculated as follows: The % inhibition of writhing, i.e., % analgesia, is equal to the difference between the No. of control animals writhing and the No. of drug-treated animals writhing times 100 divided by the No. of control animals writhing.
At least 20 animals were used for control and in each of the drug treated groups. Four doses were used to determine each dose response curve and ED50 (that does which inhibits writhing by 50%). The ED50 values and their 95% fiducial limits were determined by a computer assisted probit analysis.

Structure (SMILES) | ED50 (Mus musculus) [mg/kg] | other results
COc1cccc([C@@H]2CCC[C@@H]3CCCCN32)c1.Cl (relative stereo) [Example 3e, trans-Octahydro-4-(3-methoxyphenyl)-2H-quinolizine Hydrochloride] |  | % inhibition of writhing (% analgesia), printed in ED50 column (mouse, p.o., at 30 mg/Kg, 30 minutes before i.p. 5.5 mg/kg acetylcholine bromide, ten minute observation): 40%
Cl.c1ccc(Oc2ccc([C@@H]3CCC[C@@H]4CCCCN43)cc2)cc1 (relative stereo) [Example 2e, trans-Octahydro-4-(4-phenoxyphenyl)-2H-quinolizine Hydrochloride] |  | ED50 (mouse, p.o., 30 minutes before i.p. 5.5 mg/kg acetylcholine bromide, ten minute observation): 8 mg/kg
Brc1ccccc1[C@@H]1CCC[C@@H]2CCCCN21.Cl (relative stereo) [Example 5e, trans-4(2-Bromophenyl)octahydro-2H-quinolizine Hydrochloride] | 23 | 
Clc1cccc(Cl)c1[C@@H]1CCC[C@@H]2CCCCN21.[O-][Cl+3]([O-])([O-])O (relative stereo) [Example 1e, trans-4-(2,6-dichlorophenyl)octahydro-2H-quinolizine perchlorate] | 5 | 
Cl.Ic1ccccc1[C@@H]1CCC[C@@H]2CCCCN21 (relative stereo) [Example 4e, trans-Octahydro-4-(2-iodophenyl)-2H-quinolizine Hydrochloride] | 30 | 
